A short description of series [1]: In vivo pharmacokinetics in mice, pulmonary drug concentration after intratracheal administration. The conditions noted are these: intratracheal 2 mg/kg. Also noted: species or system male C57BL/6 mice. From the text: Compare the pharmacokinetics of the final prodrug compound of Example 1 and the control example (compound 52 in WO 2018/175173 A1) in mice:
7-9-week-old male C57BL/6 mice were randomly divided into two groups after the adaptation phase: the elastase inhibitor control group and the Example 1 group.

Series [2] is described as follows: Stability test of prodrug in simulated lung fluids (Gamble's buffer, ALF buffer) at 37° C., HPLC ratio of prodrug and hydrolyzate. Type of series: physicochemical. The conditions noted are these: for hydrolysis: linear hydrolysis; for ratio of the hydrolysis: within half an hour, ratio maintained for the next 20 hours. As for the experimental part:
(§1) Two simulated lung fluids including Gamble's buffer and ALF buffer were prepared according to literature reports (Marques M. R. C., Loebenberg R., Almukainzi M., Simulated Biological Fluids with Possible Application in Dissolution Testing, Dissolution Technologies, 2011, 18(3): 15-28) to test the prodrug stability in simulated lung fluids. In addition, according to the need for animal experimental preparations and sample analysis, three different solvents were prepared: vehicle for animal experiments (water with 5% ethanol), anhydrous ethanol and acetonitrile. They were used to test the stability of pre-dose formulations in animals and collected samples during analysis. Dissolve example 1 compound (2 mg) and example 2 compound (2 mg) in 1 mL of the above-filtered buffer or solvent, respectively. Observe whether there is undissolved particulate matter after vortex shaking, and then filter the suspension or solution to remove undissolved compounds and immediately take 100 μL as the sample at the start of the stability test. Then the ratio of prodrug and hydrolyzate (namely compound 52 in WO 2018/175173 A1, used as a control) was analyzed by HPLC. Afterwards the samples in the two simulated lung fluids were placed on an orbital shaker at 37° C. and shaken at 200 rpm, and sampling at 0.5 hours, 1 hour, 2 hours, 4 hours and 20 hours, and the ratio of prodrug and hydrolyzate were analyzed by HPLC immediately. Let the samples dissolved in the three solvents stand at room temperature, sampling at 1 hour, 3 hours, and 18 hours, and the ratio of prodrug and hydrolyzate were immediately detected.

Series [3] is described as follows: Stability test of prodrug in different solvents (vehicle water with 5% ethanol, anhydrous ethanol, acetonitrile) at room temperature. Type of series: physicochemical. As for the experimental part: as §1
[4] abbreviates: male, C57BL/6, mouse, lung, other: intratracheal, parent compound dosed, read-out: drug concentration in the lungs.

`CC(C)[C@H](NC(=O)[C@@H]1CCCN1C(=O)[C@@H](NC(=O)c1ccc(C(=O)NCC(=O)O)cc1)C(C)C)B(O)O` [control example, N-(4-(((S)-1-((S)-2-(((R)-1-borono-2-methylpropyl)carbamoyl)pyrrolidin-1-yl)-3-methyl-1-oxobutan-2-yl)carbamoyl)benzoyl)glycine, reference compound]: the “drug concentration in the lungs” value in series [1] (parent compound dosed, at 12 hours) is “completely cleared”. Besides, the concentration at 6 h in series [1] (setting [4]) is 153 ng/g.

In the case of `CC(C)[C@H](NC(=O)c1ccc(C(=O)NCC(=O)O)cc1)C(=O)N1CCC[C@H]1C(=O)N[C@@H](C(C)C)[B-]12OC(=O)C[N+]1(C)CC(=O)O2` (stereo partly drawn) [Example 2, N-(4-(((S)-3-methyl-1-((S)-2-(((R)-2-methyl-1-(6-methyl-4,8-dioxo-1,3,6,2-dioxazaborocan-2-yl)propyl)carbamoyl)pyrrolidin-1-yl)-1-oxobutan-2-yl)carbamoyl)benzoyl)glycine], the hydrolysis entry in series [2] (acidic ALF buffer (pH 4.5), in about 15 hours) is recorded as “about 50%”; in series [2] (neutral Gamble's buffer (pH 7.4), at 2.5 hours), “about 50%”. The hydrolysis in acetonitrile result in series [3] (up to 18 hours) is given as “did not hydrolyze”. Besides, the hydrolysis rate result in series [3] (anhydrous ethanol) is “about 0.5 % per hour”; in series [3] (resolvent) it was “about 1 % hydrolysis per hour”.

As for `CC(C)[C@H](NC(=O)[C@@H]1CCCN1C(=O)[C@@H](NC(=O)c1ccc(C(=O)NCC(=O)O)cc1)C(C)C)B1O[C@@H]2C[C@@H]3C[C@@H](C3(C)C)[C@]2(C)O1` [Example 1, N-(4-(((S)-3-methyl-1-((S)-2-(((R)-2-methyl-1-((3aS,4S,6S,7aR)-3a,5,5-trimethylhexahydro-4,6-methanobenzo[d][1,3,2]dioxaborol-2-yl)propyl)carbamoyl)pyrrolidin-1-yl)-1-oxobutan-2-yl)carbamoyl)benzoyl)glycine], the “ratio of the hydrolysis” value in series [2] (acidic ALF buffer (pH 4.5)) is listed as 40%; in series [2] (neutral Gamble's buffer (pH 7.4)), 25%. The “conversion of prodrug in mice” value in series [1] is recorded as “quickly converted into the control example”. For the same compound, the “effect on lung concentration and residence time of the control example compared to direct administration of the control example” value in series [1] is “greatly increases the concentration and residence time of the control example in the lungs”. Moreover, the concentration at 6 h in series [1] (setting [4]) was determined as 1070 ng/g. In series [1] (male, C57BL/6, mouse, lung, other: intratracheal, parent compound dosed, at 12 hours, read-out: drug concentration in the lungs), the concentration at 12 h was found to be 120 ng/g. Besides, in series [3] (up to 18 hours), the hydrolysis in acetonitrile entry is “hardly hydrolyzed”. In addition, in series [3] (anhydrous ethanol, up to 18 hours), the “hydrolysis in anhydrous ethanol” value is given as “hardly hydrolyzed”. For the same compound, the “hydrolyzed in the resolvent” value in series [3] (resolvent, after 18 hours) is “about 20%”; in series [3] (resolvent, in 3 hours) it was “about 18%”.

(Values after patent US12365699B2, “Elastase inhibitor prodrug and use thereof” (SUZHOU ARK BIOPHARMACEUTICAL CO., LTD., priority 2020, dated 2025).)
